Results reported in patent US5665346A, “Human interleukin-8 analogs” (dated 1997).
Where two headings read alike, the source gives them in different places.

B1: IL-8 1-54 (ligand)
chain: SAKELRCQCIKTYSKPFHPKFIKELRVIESGPHCANTEIIVKLSDGRELCLDPK
B2: IL-8 1-51 (ligand)
chain: SAKELRCQCIKTYSKPFHPKFIKELRVIESGPHCANTEIIVKLSDGRELCL

Legend:
[1] = biological target: human neutrophils (receptor sites for IL-8 on neutrophils) (human); assay: competition with 125I-IL-8 1-72 on human neutrophils, LIGAND fit
human neutrophils [2] = assay type: cell-based, human neutrophils from donor blood buffy coats; conditions: read-out: Chemotaxis ED50; n = 3
Description: (§1) In a valuable aspect of the present invention, there are provided IL-8 analogs that are antagonists of IL-8 activity. Antagonists of IL-8 activity are characterized by the ability to reduce one or more of the measurable consequences of IL-8-mediated neutrophil stimulation. Biological assays are known which may be used to test for IL-8 activities or an ability to block or inhibit IL-8. The in vitro assays require human neutrophils which may be isolated from donor blood by known procedures such as that described by Peveri, et al (1988) J. Exp. Med. 167: 1547-1559. The assays include measurement of elastase release, cytosolic free calcium changes, and chemotaxis and may be performed according to methods described by Schroder, et al (1987) J. Immunol. 139: 3474-3483; and, Peveri, et al (1988) [supra].
(§2) For the biological assays referred to in the following examples, human neutrophils isolated from buffy coats of donor blood were placed in a final suspension of 10^8 cells/ml kept at 0.15mM MaCl, 0.05 mM CaCl2 at 10° C. until use. Competition binding studies were performed according to the following protocol. IL-8 was iodinated with Enzymobead reagent (Bio-Rad) as instructed by the supplier. Briefly, 1 nmol of IL-8 was mixed with 50 µl of rehydrated Enzymobead reagent, 50 µl of 0.2M potassium phosphate, pH 7.2, 2 mCl or Na^125 I, and […] of 2% D(+)-glucose and incubated for 30 min at 21° C. […] The ^125 I-IL-8 preparations were each analyzed for purity (SDS-polyacrylamide gel electrophoresis) and binding capacity (self-displacement analysis using freshly isolated human neutrophils) prior to use. Neutrophils ([…]) in 120 µl of RPMI 1640 medium containing 20 mM Hepes, pH 7.3, and 10 mg/ml BSA (binding medium) are incubated on ice (0°-4° C.) for 90 min with 1 nM ^125 I-IL-8 in the presence or absence of cold competitor (10^-11 to 10^-5). Cells are separated from unbound radioactivity by centrifugation for 1 min at 8000× g through 350 µl of phosphate-buffered saline (PBS) containing 60 mg/ml BSA (wash medium) in a Hettich Microliter centrifuge model 2020. The supernatant is aspirated, and the bottom of the tubes containing the cell sediment is sliced off and counted in a MR 480 automated µ counter (kontron). The Kd values were determined by calculating nonlinear least squares fits of the measured data, based on a single binding site model, and determining the Kd using a LIGAND program as described by Moser, et al (1991) J. Biol. Chem. 266: 10666-10671.
(§3) Cytokine analogs formed from the monomers described in Table 1 were compared for biological activity according to in vitro assays described herein. […] The binding dissociation constants (Kd values) were calculated from the competitive binding data shown in FIGS. 5 and 6 as described above.
FIG. 2 is a graph showing neutrophil chemotaxis activity of NH2 -terminal deletion IL-8 analogs. The chemotaxis index (stimulated migration/control random migration) was determined at the indicated concentrations of IL-8 1-72: .oval-solid., 1-72; .tangle-solidup., 3-72; .increment., 4-72; .diamond., 5-72; .box-solid., 6-72; .quadrature., 7-72; and .smallcircle., 77-residue IL-8. Unidirectional error bars indicate the standard deviations. Data are representative of three assays using different neutrophil preparations.
(§4) FIG. 4 is a graph showing neutrophil chemotaxis activity of the COOH-terminal deletion IL-8 analogs. The chemotactic index (stimulated migrations/control random migration) was determined at the indicated concentrations of IL-8 1-72: .oval-solid., 1-72; .smallcircle., 1-69; .tangle-solidup., 1-66; .increment., 1-63; .box-solid., 1-60; .quadrature., 1-58; .diamond., 1-54; and X, 1-51. Unidirectional error bars indicate the standard deviations. Data are representative of three assays using different neutrophil preparations.

human neutrophils [3] = assay type: cell-based, human neutrophils from donor blood buffy coats; conditions: read-out: Elastase ED50; n = 3
Description: as §1, §2, §3
Shown are determinations at the indicated concentrations of IL-8 1-72: .oval-solid., 1-72; .tangle-solidup., 3-72; .increment., 4-72; .diamond., 5-72; .box-solid., 6-72; .quadrature., 7-72; and .smallcircle., 77-residue IL-8. Unidirectional error bars indicate the standard deviations. Data are representative of three assays using different neutrophil preparations.
as §4, with “FIG. 3” for “FIG. 4”, “neutrophil elastase release” for “neutrophil chemotaxis”, “of” for “of the”, “analogs. Shown are determinations” for “analogs. The chemotactic index (stimulated migrations/control random migration) was determined”

[4] = biological target: human neutrophils (receptor sites for IL-8 on neutrophils) (human); assay: competition with 125I-IL-8 on human neutrophils
human neutrophils [5] = assay type: cell-based, human neutrophils from donor blood buffy coats; conditions: read-out: Binding Kd
Protocol: For the biological assays referred to in the following examples, human neutrophils isolated from buffy coats of donor blood were placed in a final suspension of 10^8 cells/ml kept at 0.15mM MaCl, 0.05 mM CaCl2 at 10° C. until use. Competition binding studies were performed according to the following protocol. […] C. […] Cells are separated from unbound radioactivity by centrifugation for 1 min at 8000× g through 350 µl of phosphate-buffered saline (PBS) containing 60 mg/ml BSA (wash medium) in a Hettich Microliter centrifuge model 2020. The supernatant is aspirated, and the bottom of the tubes containing the cell sediment is sliced off and counted in a MR 480 automated µ counter (kontron). The Kd values were determined by calculating nonlinear least squares fits of the measured data, based on a single binding site model, and determining the Kd using a LIGAND program as described by Moser, et al (1991) J. Biol. Chem. 266: 10666-10671.
as §3

human neutrophils [6] = assay type: cell-based, human neutrophils from donor blood buffy coats
Protocol: For the biological assays referred to in the following examples, human neutrophils isolated from buffy coats of donor blood were placed in a final suspension of 10^8 cells/ml kept at 0.15mM MaCl, 0.05 mM CaCl2 at 10° C. until use. Competition binding studies were performed according to the following protocol. […] C. […] The supernatant is aspirated, and the bottom of the tubes containing the cell sediment is sliced off and counted in a MR 480 automated µ counter (kontron).
(§5) The effect of amino acid replacement on the activity of interleukin-8 analogues was also explored, using compounds prepared by t-boc-based solid phase peptide synthesis.

human neutrophils [7] = assay type: cell-based, human neutrophils from donor blood buffy coats; conditions: read-out: IC50 (µM)
Protocol: Analog cytokines having residues 5-72; 6-72; and 7-72; respectively, were synthesized according to the method described herein. […] The assay was performed as previously described and elastase release is expressed in relative fluorescence units (1 unit=1 pMol 7-amino-4-methylcoumarine produced min). Mean values were determined from duplicate determinations form one out of three similar experiments performed with different neutrophil preparations.
as §5

| Molecule | EC50 (human neutrophils [2]) [µM] | EC50 (human neutrophils [3]) [µM] | Kd [4] [µM] | Kd (human neutrophils [6]) [µM] | further results |
| --- | --- | --- | --- | --- | --- |
| 77-residue IL-8 (ligand) |  |  |  |  | Kd [1]: 0.00035 µM |
| IL-8 (1-72), SEQ ID NO: 1, Ser-Ala-Lys-Glu-Leu-Arg-Cys-Gln-Cys... [reference compound] | 0.00036 | 0.013 |  |  |  |
| IL-8 (4-72) (ligand) |  |  | 0.00022 |  | Kd [1]: 0.00022 µM |
| IL-8 (4-72), SEQ ID NO: 2, Glu-Leu-Arg-Cys-Gln-Cys... | 0.00025 | 0.0045 |  | 0.00022 | Kd (human neutrophils [5]): 0.00022 µM |
| IL-8 (5-72) (ligand) |  |  | 0.0008 |  | Kd [1]: 0.00076 µM |
| IL-8 (5-72), SEQ ID NO: 9, Leu-Arg-Cys-Gln-Cys... | 0.00048 | 1 |  | 0.0008 | Kd (human neutrophils [5]): 0.00076 µM |
| IL-8 (6-72) (ligand) |  |  | 0.05 |  | Kd [1]: 0.031 µM |
| IL-8 (6-72), SEQ ID NO: 12, Arg-Cys-Gln-Cys... |  |  |  | 0.05 | Kd (human neutrophils [5]): 0.031 µM; IC50 (human neutrophils [7]): 0.3 µM |
| IL-8 (7-72) (ligand) |  |  | > 10 |  |  |
| IL-8 (7-72), SEQ ID NO: 13, Cys-Gln-Cys... |  |  |  | > 10 |  |
| IL-8 residues 1-51 | 0.0071 | 0.68 |  |  | Kd (human neutrophils [5]): 0.017 µM |
| IL-8 residues 1-54 | 0.0067 | 0.58 |  |  | Kd (human neutrophils [5]): 0.01 µM |
| IL-8 residues 1-58 | 0.0089 | 0.68 |  |  |  |
| IL-8 residues 1-60 | 0.0039 | 0.22 |  |  |  |
| IL-8 residues 1-63 | 0.0017 | 0.15 |  |  |  |
| IL-8 residues 1-66 | 0.00032 | 0.013 |  |  |  |
| IL-8 residues 1-69 | 0.00014 | 0.0075 |  |  |  |
| IL-8 residues 3-72 | 0.00021 | 0.0025 |  |  |  |

| Molecule | EC50 (human neutrophils [2]) [µM] | EC50 (human neutrophils [3]) [µM] | Kd [4] [µM] | Kd (human neutrophils [6]) [µM] | further results |
| --- | --- | --- | --- | --- | --- |
| IL-8 with 5 additional NH2-terminal residues [77-residue IL-8] | 0.00069 | 0.025 |  |  | Kd (human neutrophils [5]): 0.00035 µM |
| IL-8, AAR (7-72) (ligand) |  |  | 0.0079 |  |  |
| IL-8, ELK (7-72) (ligand) |  |  | 0.22 |  |  |
| IL-8, ELL (7-72) (ligand) |  |  | 1.29 |  |  |
| IL-8, ELNle (7-72) (ligand) |  |  | 0.17 |  |  |
| IL-8, ELOrn (7-72) (ligand) |  |  | 0.4 |  |  |
| IL-8, ELQ (7-72) (ligand) |  |  | 0.65 |  |  |
| IL-8, IR (7-72) (ligand) |  |  | 0.016 |  |  |
| IL-8, QR (7-72) (ligand) |  |  | 0.034 |  |  |
| SEQ ID NO: 3, Glu-Leu-Gln-Cys-Gln-Cys... [IL-8, ELQ (7-72)] |  |  |  | 0.65 | IC50 (human neutrophils [7]): 1.1 µM |
| SEQ ID NO: 4, Glu-Leu-Leu-Cys-Gln-Cys... [IL-8, ELL (7-72)] |  |  |  | 1.29 | IC50 (human neutrophils [7]): 0.7 µM |
| SEQ ID NO: 5, Glu-Leu-Lys-Cys-Gln-Cys... [IL-8, ELK (7-72)] |  |  |  | 0.22 | IC50 (human neutrophils [7]): 1.8 µM |
| SEQ ID NO: 7, Glu-Leu-Nle-Cys-Gln-Cys... (Nle = norleucine) [IL-8, ELNle (7-72)] |  |  |  | 0.17 | IC50 (human neutrophils [7]): 1 µM |
| SEQ ID NO: 8, Ala-Ala-Arg-Cys-Gln-Cys... [IL-8, AAR (7-72)] |  |  |  | 0.0079 | IC50 (human neutrophils [7]): 0.3 µM |
| SEQ ID NO: 10, Ile-Arg-Cys-Gln-Cys... [IL-8, IR (7-72)] |  |  |  | 0.016 | IC50 (human neutrophils [7]): 0.3 µM |
| SEQ ID NO: 11, Gln-Arg-Cys-Gln-Cys... [IL-8, QR (7-72)] |  |  |  | 0.034 | IC50 (human neutrophils [7]): 2.1 µM |
| B1 |  |  |  |  | Kd [1]: 0.01 µM |
| B2 |  |  |  |  | Kd [1]: 0.017 µM |
